Measurements published in ChEMBL document CHEMBL1909046, “DrugMatrix in vitro pharmacology data”.

Tests used:
[1] = molecular target: T1, 5-hydroxytryptamine receptor 1A (Rattus norvegicus, UniProt P19327); type: cell membranes, CHO-K1, Membrane; conditions: for Ki: read-out: Ki; on all read-outs here: in other assays of this panel Not Active means under 50% inhibition at 10 µM
T1 sequence (P19327 whole entry): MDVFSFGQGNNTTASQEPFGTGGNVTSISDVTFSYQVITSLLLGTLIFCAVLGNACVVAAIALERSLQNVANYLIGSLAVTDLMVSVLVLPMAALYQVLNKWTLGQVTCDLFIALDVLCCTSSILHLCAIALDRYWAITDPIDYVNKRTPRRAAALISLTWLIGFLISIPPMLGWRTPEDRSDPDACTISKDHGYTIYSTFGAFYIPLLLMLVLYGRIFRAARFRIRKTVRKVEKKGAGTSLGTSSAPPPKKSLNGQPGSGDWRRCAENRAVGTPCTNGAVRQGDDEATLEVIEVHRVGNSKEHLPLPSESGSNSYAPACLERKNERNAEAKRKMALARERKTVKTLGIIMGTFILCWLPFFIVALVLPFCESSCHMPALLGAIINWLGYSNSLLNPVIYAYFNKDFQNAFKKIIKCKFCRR

[2] = molecular target: 5-hydroxytryptamine receptor 1B (Rattus norvegicus, UniProt P28564); type: cell membranes, Wistar, Cerebral cortex, Membrane; conditions: for Ki: read-out: Ki; on all read-outs here: in other assays of this panel Not Active means under 50% inhibition at 10 µM
[3] = molecular target: T2, Vasoactive intestinal polypeptide receptor 1 (Homo sapiens, UniProt P32241); type: cell membranes, Membrane; conditions: ht-29; further: in other assays of this panel Not Active means under 50% inhibition at 10 µM
T2 sequence (P32241 whole entry): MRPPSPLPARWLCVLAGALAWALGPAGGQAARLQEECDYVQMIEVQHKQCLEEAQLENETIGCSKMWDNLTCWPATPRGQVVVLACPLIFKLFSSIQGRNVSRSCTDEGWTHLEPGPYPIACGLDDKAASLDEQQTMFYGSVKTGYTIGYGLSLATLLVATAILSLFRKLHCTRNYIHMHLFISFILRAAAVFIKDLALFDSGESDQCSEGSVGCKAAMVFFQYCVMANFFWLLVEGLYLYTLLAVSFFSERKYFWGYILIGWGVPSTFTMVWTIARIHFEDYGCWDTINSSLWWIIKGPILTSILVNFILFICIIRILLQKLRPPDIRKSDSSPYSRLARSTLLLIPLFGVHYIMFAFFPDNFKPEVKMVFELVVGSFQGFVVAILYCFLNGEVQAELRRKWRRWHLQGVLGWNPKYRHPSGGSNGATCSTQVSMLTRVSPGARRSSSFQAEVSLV

[4] = DRUGMATRIX: Leukotriene, BLT (LTB4) radioligand binding (ligand: [3H]LTB4); type: cell membranes, Membrane; conditions: u-937; Not Active = under 50% inhibition at 10 µM
[5] = molecular target: cGMP-specific 3',5'-cyclic phosphodiesterase (Homo sapiens, UniProt O76074); assay: DRUGMATRIX: Phosphodiesterase PDE5 enzyme inhibition (substrate: [3H]cGMP + cGMP); type: tissue-based; conditions: platelet; Not Active = under 50% inhibition at 10 µM
[6] = molecular target: Prostaglandin G/H synthase 1 (Homo sapiens, UniProt P23219); assay: biochemical; type: tissue-based, Platelet;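 further: inhibition of COX-1 enzyme activity, with arachidonic acid supplied as substrate; in other assays of this panel Not Active means under 50% inhibition at 10 µM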
Prostaglandin G/H synthase 1, sequence (P23219 whole entry): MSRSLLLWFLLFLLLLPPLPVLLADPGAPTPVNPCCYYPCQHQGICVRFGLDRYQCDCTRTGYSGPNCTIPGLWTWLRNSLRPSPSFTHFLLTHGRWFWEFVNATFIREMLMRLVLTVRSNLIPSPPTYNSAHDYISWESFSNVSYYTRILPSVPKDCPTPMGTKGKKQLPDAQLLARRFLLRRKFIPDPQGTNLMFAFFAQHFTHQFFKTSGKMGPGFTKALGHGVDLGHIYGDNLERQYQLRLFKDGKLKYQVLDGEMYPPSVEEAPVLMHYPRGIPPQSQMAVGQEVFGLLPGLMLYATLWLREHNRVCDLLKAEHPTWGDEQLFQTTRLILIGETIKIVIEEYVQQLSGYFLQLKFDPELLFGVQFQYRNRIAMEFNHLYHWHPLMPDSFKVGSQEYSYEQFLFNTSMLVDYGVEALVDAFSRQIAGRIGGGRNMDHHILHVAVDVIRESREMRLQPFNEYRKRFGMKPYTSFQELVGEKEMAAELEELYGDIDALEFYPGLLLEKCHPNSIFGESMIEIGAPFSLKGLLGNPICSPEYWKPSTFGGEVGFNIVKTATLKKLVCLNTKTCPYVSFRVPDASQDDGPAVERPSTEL

5-hydroxytryptamine receptor 1B, sequence (P28564 whole entry): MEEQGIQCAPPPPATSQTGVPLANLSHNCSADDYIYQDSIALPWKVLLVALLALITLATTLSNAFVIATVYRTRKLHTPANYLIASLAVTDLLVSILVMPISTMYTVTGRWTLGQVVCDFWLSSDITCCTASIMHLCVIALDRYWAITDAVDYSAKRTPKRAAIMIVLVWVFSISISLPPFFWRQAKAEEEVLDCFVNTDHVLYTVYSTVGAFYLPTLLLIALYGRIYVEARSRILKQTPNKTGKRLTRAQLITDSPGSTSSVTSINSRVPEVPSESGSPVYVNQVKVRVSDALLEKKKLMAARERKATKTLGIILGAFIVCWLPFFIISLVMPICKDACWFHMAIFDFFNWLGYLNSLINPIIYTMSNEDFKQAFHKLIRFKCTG

SMILES | IC50 ([1]; read-out: IC50) | Ki [1] | IC50 [2] | IC50 [3] | IC50 [4] | Ki [4] | IC50 [5] | IC50 ([6]; platelet) | IC50 ([1]; cho-k1) | IC50 ([2]; read-out: IC50) | Ki [2] | IC50 ([6]; read-out: IC50)
CC(C)(C)NC(=O)[C@@H]1C[C@@H]2CCCC[C@@H]2CN1C[C@@H](O)[C@H](Cc1ccccc1)NC(=O)[C@H](CC(N)=O)NC(=O)c1ccc2ccccc2n1 | 4.27 µM | 2.44 µM | Not Active | Not Active | Not Active | Not Active | Not Active | Not Active | – | – | – | –
CC(=O)[C@@]1(O)CC[C@H]2[C@@H]3C[C@H](C)C4=CC(=O)CC[C@]4(C)[C@H]3CC[C@@]21C | – | – | Not Active | Not Active | Not Active | Not Active | Not Active | Not Active | Not Active | – | – | –
N[C@@H](Cc1ccc(N(CCCl)CCCl)cc1)C(=O)O | – | – | Not Active | Not Active | Not Active | Not Active | Not Active | Not Active | Not Active | – | – | –
CCCCc1oc2ccccc2c1C(=O)c1cc(I)c(OCCN(CC)CC)c(I)c1 [AMIODARONE] | – | – | – | Not Active | – | – | Not Active | Not Active | Not Active | 86.2 µM | 39.2 µM | –
OCCN(CCO)c1nc(N2CCCCC2)c2nc(N(CCO)CCO)nc(N3CCCCC3)c2n1 [DIPYRIDAMOLE] | – | – | Not Active | Not Active | Not Active | Not Active | – | Not Active | Not Active | – | – | –
Cc1oncc1C(=O)Nc1ccc(C(F)(F)F)cc1 [LEFLUNOMIDE] | – | – | Not Active | Not Active | Not Active | Not Active | Not Active | Not Active | Not Active | – | – | –
c1ccc([C@H]2CN3CCSC3=N2)cc1 [LEVAMISOLE] | – | – | Not Active | Not Active | Not Active | Not Active | Not Active | Not Active | Not Active | – | – | –
N[C@@H](Cc1ccc(O)c(O)c1)C(=O)O [LEVODOPA] | – | – | Not Active | Not Active | Not Active | Not Active | Not Active | Not Active | Not Active | – | – | –
N[C@@H](Cc1cc(I)c(Oc2ccc(O)c(I)c2)c(I)c1)C(=O)O [LIOTHYRONINE] | – | – | Not Active | Not Active | – | – | Not Active | Not Active | Not Active | – | – | –
O=NN(CCCl)C(=O)NC1CCCCC1 [LOMUSTINE] | – | – | Not Active | Not Active | Not Active | Not Active | Not Active | Not Active | Not Active | – | – | –
CCOC(=O)N1CCC(=C2c3ccc(Cl)cc3CCc3cccnc32)CC1 [LORATADINE] | – | – | Not Active | Not Active | Not Active | Not Active | Not Active | Not Active | Not Active | – | – | –
Cn1ccnc1S [METHIMAZOLE] | – | – | Not Active | Not Active | Not Active | Not Active | Not Active | Not Active | Not Active | – | – | –
CN1CCN(CCCN2c3ccccc3Sc3ccc(Cl)cc32)CC1 [PROCHLORPERAZINE] | 0.95 µM | 0.543 µM | – | Not Active | – | – | Not Active | Not Active | – | 2.65 µM | 1.2 µM | –
Cc1nc2n(c(=O)c1CCN1CCC(c3noc4cc(F)ccc34)CC1)CCCC2 [RISPERIDONE] | – | – | Not Active | Not Active | – | – | Not Active | Not Active | – | – | – | –
CSc1ccc(/C=C2/C(C)=C(CC(=O)O)c3cc(F)ccc32)cc1 [SULINDAC SULFIDE] | – | – | Not Active | Not Active | Not Active | Not Active | Not Active | – | Not Active | – | – | –
CC/C(=C(\c1ccccc1)c1ccc(OCCN(C)C)cc1)c1ccccc1 [TAMOXIFEN] | 12.2 µM | 6.95 µM | Not Active | Not Active | – | – | Not Active | – | – | – | – | 4.39 µM
CCCOc1ccccc1-c1nc2nn[nH]c2c(=O)[nH]1 [ZAPRINAST] | – | – | Not Active | Not Active | Not Active | Not Active | – | Not Active | Not Active | – | – | –
